pIC50: −log10 of the molar value. Where two headings read alike, the source gives them in different places.
Key:
Format in all cases: biochemical
[1] = target: T1, human FGF-1 (flg) receptor tyrosine kinase (Homo sapiens, UniProt P11362); assay: FGF receptor tyrosine kinase assay; conditions: read-out: Inhibition of Protein Tyrosine Kinases, FGF, IC50
T1 construct: a fragment of DNA that codes for the intracellular tyrosine kinase domain; made in house; host or cells: Sf9 insect cells (baculovirus), cell lysate
T1 sequence (P11362 478-767 limits assumed): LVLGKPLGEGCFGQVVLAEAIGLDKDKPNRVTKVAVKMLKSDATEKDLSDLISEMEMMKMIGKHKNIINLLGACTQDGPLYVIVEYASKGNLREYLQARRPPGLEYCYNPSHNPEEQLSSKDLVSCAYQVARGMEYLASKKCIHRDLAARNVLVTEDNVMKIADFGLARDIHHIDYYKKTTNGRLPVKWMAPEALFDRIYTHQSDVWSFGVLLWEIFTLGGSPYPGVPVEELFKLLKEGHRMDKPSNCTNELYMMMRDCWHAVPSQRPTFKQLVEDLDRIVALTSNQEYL
Text: (§1) PDGF and FGF Receptor Tyrosine Kinase Assays
(§2) Full length cDNAs for the mouse PDGF-β and human FGF-1 (flg) receptor tyrosine kinases were obtained from J. Escobedo and prepared as described in J. Biol. Chem., 262:1482-1487 (1991), and PCR primers were designed to amplify a fragment of DNA that codes for the intracellular tyrosine kinase domain. The fragment was melded into a baculovirus vector, cotransfected with AcMNPV DNA, and the recombinant virus isolated. SF9 insect cells were infected with the virus to overexpress the protein, and the cell lysate was used for the assay. […] Briefly, to each well was added 82.5 μL of incubation buffer containing 25 mM Hepes (pH 7.0), 150 mM NaCl, 0.1% Triton X-100, 0.2 mM PMSF, 0.2 mM Na3 VO4, 10 mM MnCl2, and 750 μg/mL of Poly (4:1) glutamate-tyrosine followed by 2.5 μL of inhibitor and 5 μL of enzyme lysate (7.5 μg/μL FGF-TK or 6.0 μg/μL PDGF-TK) to initiate the reaction. Following a 10 minute incubation at 25° C., 10 μL of γ^32 P-ATP (0.4 μCi plus 50 μM ATP) was added to each well and samples were incubated for an additional 10 minutes at 25° C. The reaction was terminated by the addition of 100 μL of 30% trichloroacetic acid (TCA) containing 20 mM sodium pyrophosphate and precipitation of material onto glass fiber filter mats (Wallac). […] Nonspecific activity was defined as radioactivity retained on the filters following incubation of samples with buffer alone (no enzyme). Specific enzymatic activity was defined as total activity (enzyme plus buffer) minus nonspecific activity.

[2] = target: T2, mouse PDGF-β receptor tyrosine kinase (Mus musculus, UniProt P05622); assay: PDGF receptor tyrosine kinase assay; conditions: for pIC50: read-out: Inhibition of Protein Tyrosine Kinases, PDGF, IC50; for inhibition at 50 µM: read-out: Inhibition of Protein Tyrosine Kinases, PDGF, % Inhibition
T2 construct: a fragment of DNA that codes for the intracellular tyrosine kinase domain; made in house; host or cells: Sf9 insect cells (baculovirus), cell lysate
T2 sequence (P05622 599-961 limits assumed): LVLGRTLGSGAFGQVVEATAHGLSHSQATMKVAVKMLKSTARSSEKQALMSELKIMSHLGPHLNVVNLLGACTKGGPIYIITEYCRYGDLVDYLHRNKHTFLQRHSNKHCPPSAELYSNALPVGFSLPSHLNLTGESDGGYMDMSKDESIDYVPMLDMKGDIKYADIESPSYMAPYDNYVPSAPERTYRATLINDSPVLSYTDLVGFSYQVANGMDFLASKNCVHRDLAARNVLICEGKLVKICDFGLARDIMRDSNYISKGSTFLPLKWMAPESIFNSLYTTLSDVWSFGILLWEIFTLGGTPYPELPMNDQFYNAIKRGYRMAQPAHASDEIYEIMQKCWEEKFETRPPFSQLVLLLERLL
Text: as §1, §2

C-src kinase = target: T3, C-src kinase (Homo sapiens, UniProt P12931); assay: C-src kinase assay; conditions: for pIC50: read-out: Inhibition of Protein Tyrosine Kinases, C-src, IC50; for inhibition at 50 µM: read-out: Inhibition of Protein Tyrosine Kinases, C-src, % Inhibition
T3 construct: made in house; host or cells: baculovirus-infected insect cells
T3 sequence (P12931 whole entry): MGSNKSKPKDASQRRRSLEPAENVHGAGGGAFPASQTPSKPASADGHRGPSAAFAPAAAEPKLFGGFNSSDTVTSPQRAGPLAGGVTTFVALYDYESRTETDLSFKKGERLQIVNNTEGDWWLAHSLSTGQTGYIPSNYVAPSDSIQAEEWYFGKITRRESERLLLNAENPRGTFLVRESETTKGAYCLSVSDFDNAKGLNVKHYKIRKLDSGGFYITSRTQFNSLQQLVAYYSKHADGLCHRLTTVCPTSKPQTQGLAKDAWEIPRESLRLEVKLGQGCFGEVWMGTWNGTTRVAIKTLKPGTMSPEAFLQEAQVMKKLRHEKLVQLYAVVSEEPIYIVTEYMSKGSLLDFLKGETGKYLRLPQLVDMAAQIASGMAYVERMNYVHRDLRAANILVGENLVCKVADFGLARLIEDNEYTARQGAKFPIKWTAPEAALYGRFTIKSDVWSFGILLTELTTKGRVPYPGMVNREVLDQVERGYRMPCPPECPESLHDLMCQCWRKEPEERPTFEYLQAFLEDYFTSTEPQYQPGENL
Method: V-src and C-src Kinase Assays
V-src or C-src kinase is purified from baculovirus infected insect cell lysates using an antipeptide monoclonal antibody directed against the N-terminal 2-17 amino acids. The antibody, covalently linked to 0.65-μm latex beads, is added to a suspension of insect cell lysis buffer comprised of 150 mM NaCl, 50 mM Tris pH 7.5, 1 mM DTT, 1% NP-40, 2 mM EGTA, 1 mM sodium vanadate, 1 mM PMSF, 1 μg/mL each of leupeptin, pepstatin, and aprotinin. […] At the end of the lysate incubation, the beads are rinsed 3 times in lysis buffer, resuspended in lysis buffer containing 10% glycerol, and frozen. These latex beads are thawed, rinsed three times in assay buffer which is comprised of 40 mM tris pH 7.5, 5 mM MgCl2, and suspended in the same buffer. In a Millipore 96-well plate with a 0.65 μm polyvinylidine membrane bottom are added the reaction components: 10-μL v-src or c-src beads, 10 μL of 2.5 mg/mL poly GluTyr substrate, 5 μM ATP containing 0.2 μCi labeled ^32 P-ATP, 5μL DMSO containing inhibitors or as a solvent control, and buffer to make the final volume 125 μL. The reaction is started at room temperature by addition of the ATP and quenched 10 minutes later by the addition of 125 μL of 30% TCA, 0.1M sodium pyrophosphate for 5 minutes on ice. The plate is then filtered and the wells washed with two 250-μL aliquots of 15% TCA, 0.1M pyrophosphate. The filters are punched, counted in a liquid scintillation counter, and the data examined for inhibitory activity in comparison to a known inhibitor such as erbstatin. The method is described more fully in J. Med. Chem., 37:598-609 (1994).

Structure (SMILES)	pIC50 [1]	pIC50 [2]	pIC50 (C-src kinase)	inhibition at 50 µM [2] [%]	inhibition at 50 µM (C-src kinase; at 50 μM) [%]	inhibition at 50 µM (C-src kinase) [%]
CC(C)NC(=O)Nc1nc2nc(NCCCN3CCN(C)CC3)ncc2cc1-c1c(Cl)cccc1Cl [Example 38]	7.33	6.44	7.72	–	–	–
CN1CCN(CCCNc2ncc3cc(-c4c(Cl)cccc4Cl)c(NC(=O)Nc4ccc(Cl)cc4)nc3n2)CC1 [Example 45, 1-(4-Chloro-phenyl)-3-{6-(2,6-dichlorophenyl)-2-[3-(4-methyl-piperazin-1-yl)-propylamino]-pyrido[2,3-d]pyrimidin-7-yl}-urea]	6.70	5.73	7.40	–	–	–
CC(C)(C)NC(=O)Nc1nc2nc(N)ncc2cc1-c1cccc(Cl)c1Cl [Example 84, 1-[2-Amino-6-(2,3-dichlorophenyl)-pyrido[2,3-d]pyrimidin-7-yl]-3-tert-butyl-urea]	6.79	5.65	5.42	–	–	–
CC(C)(C)NC(=O)Nc1nc2nc(N)ncc2cc1-c1cccnc1 [Example 108, 1-(2-Amino-6-pyridin-3-yl-pyrido[2,3-d]pyrimidin-7-yl)-3-tert-butyl-urea]	5.35	4.86	5.25	–	–	–
CCN(CC)CCNc1ncc2cc(-c3c(Cl)cccc3Cl)c(N)nc2n1 [Example 65, 6-(2,6-Dichlorophenyl)-N^2-(2-diethylamino-ethyl)-pyrido[2,3-d]pyrimidine-2,7-diamine]	4.77	–	–	29.6	95	–
CCCCCCCCNC(=O)Nc1nc2nc(NCCCN3CCN(C)CC3)ncc2cc1-c1c(Cl)cccc1Cl [Example 47, 1-{6-(2,6-Dichlorophenyl)-2-[3-(4-methyl-piperazin-1-yl)-propylamino]-pyrido[2,3-d]pyrimidin-7-yl}-3-octyl-urea]	6.20	5.21	6.79	–	–	–
CCN(CC)CCCCNc1ncc2cc(-c3c(Cl)cccc3Cl)c(N)nc2n1 [Example 53, 6-(2,6-Dichlorophenyl)-N^2-(4-diethylamino-butyl)-pyrido[2,3-d]pyrimidine-2,7-diamine]	6.16	5.15	6.82	–	–	–
Cc1cc(C)c(C)c(-c2cc3cnc(N)nc3nc2N)c1C [Example 98, 6-(2,3,5,6-Tetramethyl-phenyl)-pyrido[2,3-d]pyrimidine-2,7-diamine]	5.74	–	–	34.3	0.5	–
CC(C)(C)NC(=O)Nc1nc2nc(N)ncc2cc1-c1c(Cl)ccc(Cl)c1Cl [Example 86, 1-[2-Amino-6-(2,3,6-trichloro-phenyl)-pyrido[2,3-d]pyrimidin-7-yl]-3-tert-butyl-urea]	6.94	5.53	5.85	–	–	–
Cc1cc(C)c(C)c(-c2cc3cnc(NCCCN4CCN(C)CC4)nc3nc2N)c1C [Example 120, N^2-[3-(4-Methyl-piperazin-1-yl)-propyl]-6-(2,3,5,6-tetramethyl-phenyl)-pyrido[2,3-d]pyrimidine-2,7-diamine]	5.49	5.42	4.37	–	–	–
Cc1cccc(-c2cc3cnc(N)nc3nc2NC(=O)NC(C)(C)C)c1C [Example 93, 1-[2-Amino-6-(2,3-dimethyl-phenyl)-pyrido[2,3-d]pyrimidin-7-yl]-3-tert-butyl-urea]	6.46	5.22	5.38	–	–	–
CN(C)CC(C)(C)CNc1ncc2cc(-c3c(Cl)cccc3Cl)c(NC(=O)NC(C)(C)C)nc2n1 [Example 30, 1-tert-Butyl-3-[6-(2,6-dichlorophenyl)-2-[3-dimethylamino-2,2-dimethyl-propylamino)-pyrido[2,3-d]pyrimidin-7-yl]-urea]	6.58	5.75	–	–	46.8	–
CN1CCN(CCCNc2ncc3cc(-c4c(Cl)cccc4Cl)c(NC(=O)NC45CC6CC(CC(C6)C4)C5)nc3n2)CC1 [Example 117, 1-Adamantan-1-yl-3-{6-(2,6-dichlorophenyl)-2-[3-(4-methyl-piperazin-1-yl)-propylamino]-pyrido[2,3-d]pyrimidin-7-yl}-urea]	6.87	5.55	–	–	100	–
CCCNC(=O)Nc1nc2nc(N)ncc2cc1-c1c(Cl)cccc1Cl [Example 26, 1-[2-Amino-6-(2,6-dichlorophenyl)-pyrido[2,3-d]pyrimidin-7-yl]-3-propyl-ure]	6.94	5.97	7.40	–	–	–
CCN(CCO)CCCNc1ncc2cc(-c3c(Cl)cccc3Cl)c(N)nc2n1 [Example 70, 2-({3-[7-Amino-6-(2,6-dichlorophenyl)-pyrido[2,3-d]pyrimidin-2-ylamino]-propyl}-ethyl-amino)-ethanol]	5.59	4.50	6.03	–	–	–
CC(C)(C)NC(=O)Nc1nc2nc(N)ncc2cc1-c1c(F)cccc1F [Example 87, 1-[2-Amino-6-(2,6-difluoro-phenyl)-pyrido[2,3-d]pyrimidin-7-yl]-3-tert-butyl-urea]	6.93	5.73	–	–	–	92.7
Nc1nc2nc(NCCCN3CCOCC3)ncc2cc1-c1c(Cl)cccc1Cl [Example 58, 6-(2,6-Dichlorophenyl)-N^2-(3-morpholin-4-yl-propyl)-pyrido[2,3-d]pyrimidine-2,7-diamine]	5.46	4.72	–	–	110	–
CCN(CC)CCCNc1ncc2cc(-c3c(Br)cccc3Br)c(N)nc2n1 [Example 61, 6-(2,6-Dibromo-phenyl)-N^2-[3-diethylamino-propyl)-pyrido[2,3-d]pyrimidine-2,7-diamine]	5.11	4.34	6.12	–	–	–
Nc1ncc2cc(-c3c(F)cccc3F)c(N)nc2n1 [Example 63, 6-(2,6-Difluoro-phenyl)-pyrido[2,3-d]pyrimidine-2,7-diamine]	6.27	5.15	5.75	–	–	–
COc1cccc(-c2cc3cnc(N)nc3nc2NC(=O)NC(C)(C)C)c1 [Example 103, 1-[2-Amino-6-(3-methoxy-phenyl)-pyrido[2,3-d]pyrimidin-7-yl]-3-tert-butyl-urea]	6.52	4.71	4.44	–	–	–
CC(C)(C)NC(=O)Nc1nc2nc(N)ncc2cc1-c1ccncc1 [Example 110, 1-(2-Amino-6-pyridin-4-yl-pyrido[2,3-d]pyrimidin-7-yl)-3-tert-butyl-urea]	4.89	4.94	–	–	27.5	–
CN1CCN(CCCNc2ncc3cc(-c4c(Cl)cccc4Cl)c(N)nc3n2)CC1 [Example 36, N^2-[3-(4-methyl-piperazin-1-yl)-propyl]-6-(2,6-dichlorophenyl)-pyrido[2,3-d]pyrimidine-2,7-diamine]	6.28	4.64	6.74	–	–	–
CN1CCN(CCCNc2ncc3cc(-c4c(Cl)cccc4Cl)c(NC(=O)Nc4ccc(Br)cc4)nc3n2)CC1 [Example 44, 1-(4-Bromo-phenyl)-3-{6-(2,6-dichlorophenyl)-2-[3-(4-methyl-piperazin-1-yl)-propylamino]-pyrido[2,3-d]pyrimidin-7-yl}-urea]	6.71	5.81	7.64	–	–	–
CCN(CC)CCCNc1ncc2cc(-c3c(Cl)cccc3Cl)c(N=CN(C)C)nc2n1 [Example 78, N'-[6-(2,6-Dichlorophenyl)-2-{3-(diethylamino)propyl-amino}pyrido[2,3-d]pyrimidin-7-yl]-N,N-dimethylformamidine]	5.40	4.48	5.40	–	–	–
